Assay: Absorbance and fluorescence measurements (excitation maximum, emission maximum, quantum yield vs coumarin 151)
Assay type: physicochemical
Parameters: key to Quantum Yield: fraction relative to coumarin 151 in ethanol standard
Conditions: for λex: absorbance/excitation maximum; for λem: emission maximum
Description: All reagents and solvents were acquired from commercially available suppliers and used without further purification. Methanol(dried on molecular sieves-Acroseal) was obtained from Acros. […] 1H and 13C NMR spectra were obtained on a Bruker NMR spectrometer at 500/400 and 125/100 MHz respectively. The data is reported as follows: chemical shift in ppm (δ), multiplicity (s=singlet, d=doublet, dd=doublet of doublets, t=triplet, dt=doublet of triplets, td=triplet of doublets, q=quartet, p=pentet, m=multiplet). Coupling constants are reported in Hertz (Hz) and were automatically generated using known NMR analyzer software (MestReNova), these were then subsequently curated. High-resolution mass spectra were obtained using the positive ESI method for all the compounds, obtained in an Ion Cyclotron Resonance (ICR) spectrometer. Absorbance spectra were obtained using an Agilent 8453 UV-visible spectroscopy system. Fluorescence was measured on a Varian (Agilent) Cary Eclipse Fluorimeter. Quantum yield measurements were calculated and reported using coumarin 151 in ethanol as a standard.^1 Fluorescence scans were obtained using a 2.5 mm slit width unless otherwise noted.
The fluorescence was also measured in different solvents to examine the solvent effects.

[1] = coumarin 151 in ethanol as standard, 2.5 mm slit width, measurements run with methanol
[2] = 2.5 mm slit width, measurements run with methanol

Molecule | λex (measurements run with methanol) [nm] | Quantum Yield [1] | λem [2] [nm] | fluorescence (observation in words) | Quantum Yield (tetracyclic indolizines of Example I)
CCN(CC)c1ccc(/C=C/c2nc3nc(-c4ccc(N(CC)CC)cc4)c(NC(C)(C)C)n3nc2C)cc1 [Compound 49, (E)-N-(tert-butyl)-6-(4-(diethylamino)phenyl)-3-(4-(diethylamino)styryl)-2-methylimidazo[1,2-b][1,2,4]triazin-7-amine] | 566 | 0.45 | 653 | – | –
COC(=O)c1ccn2c(N)c(-c3ccc(OC)cc3OC)nc2c1 [Compound 10am, methyl 3-amino-2-(2,4-dimethoxyphenyl)imidazo[1,2-a]pyridine-7-carboxylate] | 402 | 0.49 | 519 | – | –
COc1cc(OC)cc(-c2nc3cccnn3c2N)c1 [Compound lot, 2-(3,5-dimethoxyphenyl)imidazo[1,2-b]pyridazin-3-amine] | 407 | 0.02 | 546 | – | –
COc1ccc(-c2nc3ccc(-c4ccccc4)cn3c2N)cc1 [Compound 10ar, 2-(4-methoxyphenyl)-6-phenylimidazo[1,2-a]pyridin-3-amine] | 350 | 0.09 | 510 | – | –
Nc1c(-c2ccc(Oc3ccccc3)cc2)nc2ccccn12 [Compound 10m, 2-(4-phenoxyphenyl)imidazo[1,2-a]pyridin-3-amine] | 343 | 0.40 | 474 | – | –
COc1cc(-c2nc3ccccn3c2N)cc(OC)c1OC [Compound 10c, 2-(3,4,5-trimethoxyphenyl)imidazo[1,2-a]pyridin-3-amine] | 343 | 0.38 | 472 | – | –
COc1cc(OC)c2c(-c3ccccc3)nc3c(nc4ccccn43)c2c1 [Compound 18a, 2,4-dimethoxy-5-phenylpyrido[2′,1′:2,3]imidazo[4,5-c]isoquinoline] | 365 | 0.01 | 422 | not observable by the naked eye | 0.01
COc1cc(OC)cc(-c2nc3c(nc4ccccn43)c3cc(OC)cc(OC)c23)c1 [Compound 16d, 5-(3,5-dimethoxyphenyl)-2,4-dimethoxypyrido[2′,1′:2,3]imidazo[4,5-c]isoquinoline] | 364 | 0.01 | 415 | – | –
Nc1c(-c2cccc([N+](=O)[O-])c2)nc2ccccn12 [Compound 10j, 2-(3-nitrophenyl)imidazo[1,2-a]pyridin-3-amine] | 350 | – | – | – | –
Nc1c(-c2ccc(N(c3ccccc3)c3ccccc3)cc2)nc2cccnn12 [Compound 10af, 2-(4-(diphenylamino)phenyl)imidazo[1,2-b]pyridazin-3-amine] | 438 | 0.05 | 544 | – | –
c1ccc2cc(-c3nc4c(nc5ccccn54)c4ccc5ccccc5c34)ccc2c1 [Compound 16e, 7-(naphthalen-2-yl)benzo[h]pyrido[2′,1′:2,3]imidazo[4,5-c]isoquinoline] | 389 | 0.01 | 442 | – | –
COc1ccc(-c2nc3cccnn3c2N)c(OC)c1 [Compound 10ae, 2-(2,4-dimethoxyphenyl)imidazo[1,2-b]pyridazin-3-amine] | 433 | 0.02 | 555 | – | –
Cc1nn2c(/N=C/c3cccs3)c(-c3cccs3)nc2nc1/C=C/c1cccs1 [Compound 63, (E)-N-(2-methyl-6-(thiophen-2-yl)-3-((E)-2-(thiophen-2-yl)vinyl)imidazo[1,2-b][1,2,4]triazin-7-yl)-1-(thiophen-2-yl)methanimine] | 572 | 0.19 | 615 | – | –
COC(=O)c1ccn2c(N)c(-c3ccc(-c4ccccc4)cc3)nc2c1 [Compound 10aj, methyl 2-([1,1′-biphenyl]-4-yl)-3-aminoimidazo[1,2-a]pyridine-7-carboxylate] | 403 | 0.45 | 517 | – | –
COc1cc(/C=C/c2nc3nc(-c4cc(OC)c(OC)c(OC)c4)c(/N=C/c4cc(OC)c(OC)c(OC)c4)n3nc2C)cc(OC)c1OC [Compound 64, (E)-N-(2-methyl-6-(3,4,5-trimethoxyphenyl)-3-((E)-3,4,5-trimethoxystyryl)imidazo[1,2-b][1,2,4]triazin-7-yl)-1-(3,4,5-trimethoxyphenyl)methanimine] | 533 | 0.10 | 611 | – | –
Nc1c(-c2ccccc2)nc2ccccn12 [Compound 10f, 2-phenylimidazo[1,2-a]pyridin-3-amine] | 339 | 0.30 | 473 | – | –
COc1cc(-c2nc3cccnn3c2N)cc(OC)c1OC [Compound 10ad, 2-(3,4,5-trimethoxyphenyl)imidazo[1,2-b]pyridazin-3-amine] | 429 | 0.03 | 541 | – | –

Molecule | λex (measurements run with methanol) [nm] | Quantum Yield [1] | λem [2] [nm] | fluorescence (observation in words) | Quantum Yield (tetracyclic indolizines of Example I)
COC(=O)c1ccn2c(N)c(-c3ccc(OC)cc3)nc2c1 [Compound 10ak, methyl 3-amino-2-(4-methoxyphenyl)imidazo[1,2-a]pyridine-7-carboxylate] | 394 | 0.40 | 510 | – | –
COc1cc(OC)cc(-c2nc3cc(Br)ccn3c2N)c1 [Compound 10y, 7-bromo-2-(3,5-dimethoxyphenyl)imidazo[1,2-a]pyridin-3-amine] | 349 | 0.01 | 487 | – | –
COc1cccc(-c2nc3ccccn3c2N)c1OC [Compound 10b, 2-(2,3-dimethoxyphenyl)imidazo[1,2-a]pyridin-3-amine] | 341 | 0.40 | 471 | – | –
Cc1nn2c(NC(C)(C)C)c(-c3ccc4ccccc4c3)nc2nc1/C=C/c1ccc2ccccc2c1 [Compound 43, (E)-N-(tert-butyl)-2-methyl-6-(naphthalen-2-yl)-3-(2-(naphthalen-2-yl)vinyl)imidazo[1,2-b][1,2,4]triazin-7-amine] | 485 | 0.22 | 643 | – | –
COC(=O)c1ccn2c(N)c(-c3cc(OC)c(OC)c(OC)c3)nc2c1 [Compound 10al, methyl 3-amino-2-(3,4,5-trimethoxyphenyl)imidazo[1,2-a]pyridine-7-carboxylate] | 399 | 0.51 | 512 | – | –
COc1ccn2c(N)c(-c3ccc([N+](=O)[O-])cc3)nc2c1 [Compound 10au, 7-methoxy-2-(4-nitrophenyl)imidazo[1,2-a]pyridin-3-amine] | 360 | – | – | – | –
CCN(CC)c1ccc(-c2nc3ccccn3c2N)cc1 [Compound 10q, 2-(4-(diethylamino)phenyl)imidazo[1,2-a]pyridin-3-amine] | 341 | 0.12 | 486 | – | –
COC(=O)c1ccn2c(N)c(-c3cc(OC)cc(OC)c3)nc2c1 [Compound 10v, methyl 3-amino-2-(3,5-dimethoxyphenyl)imidazo[1,2-a]pyridine-7-carboxylate] | 403 | 0.42 | 514 | – | –
Nc1c(-c2cccc(Oc3ccccc3)c2)nc2ccccn12 [Compound 10n, 2-(3-phenoxyphenyl)imidazo[1,2-a]pyridin-3-amine] | 339 | 0.40 | 474 | – | –
Cc1nn2c(NC(C)(C)C)c(-c3ccccc3)nc2nc1/C=C/c1ccccc1 [Compound 42, (E)-N-(tert-butyl)-2-methyl-6-phenyl-3-styrylimidazo[1,2-b][1,2,4]triazin-7-amine] | 453 | 0.11 | 636 | – | –
(E)-2,3,4-trimethoxy-9-methyl-5-(3,4,5-trimethoxyphenyl)-10-(3,4,5-trimethoxystyryl)-[1,2,4]triazino[3′, 2′: 2,3]imidazo[4,5-c]isoquinolines [Compound 80] | 499 | 0.25 | 604 | – | –
COc1ccc(-c2nc3ccccn3c2N)cc1 [Compound 10g, 2-(4-methoxyphenyl)imidazo[1,2-a]pyridin-3-amine] | 340 | 0.39 | 472 | – | –
COC(=O)c1ccn2c(N)c(-c3ccc4ccccc4c3)nc2c1 [Compound 10ai, methyl 3-amino-2-(naphthalen-2-yl)imidazo[1,2-a]pyridine-7-carboxylate] | 434 | 0.47 | 512 | – | –
COC(=O)c1ccc2nc(-c3cc(OC)cc(OC)c3)c(N)n2c1 [Compound 10w, methyl 3-amino-2-(3,5-dimethoxyphenyl)imidazo[1,2-a]pyridine-6-carboxylate] | 343 | 0.02 | 473 | – | –
COC(=O)c1ccn2c(c1)nc1c3cc(OC)cc(OC)c3c(/C=C/c3ccccc3)nc12 [Compound 18c, methyl (E)-2,4-dimethoxy-5-styrylpyrido[2′,1′:2,3]imidazo[4,5-c]isoquinoline-10-carboxylate] | 325 | 0.19 | 510 | – | –
Nc1c(-c2ccccc2[N+](=O)[O-])nc2ccccn12 [Compound 10i, 2-(2-nitrophenyl)imidazo[1,2-a]pyridin-3-amine] | 330 | – | – | – | –

From US20260071117A1, “FUNABLE FLUORESCENT COMPOUNDS AND USES THEREOF” (Arizona Board of Regents on Behalf of the University of …, priority 2021, published 2026)
